{
  "source": "the NIST ThermoML archive (doi:10.1021/je600552b)",
  "details": "101.33 kPa, Liquid, Falling or rolling sphere viscometry",
  "note": "± gives the expanded uncertainty stated by the source.",
  "data": [
    {"compound": "CCCCCCCC/C=C\\CCCCCCCC(=O)OC", "note": "[methyl cis-9-octadecenoate]", "values": [
      {"measurement": "viscosity", "setting": "293.15 K", "result": "6.37 ± 0.22", "unit": "mPa·s"},
      {"measurement": "viscosity", "setting": "303.15 K", "result": "4.922 ± 0.17", "unit": "mPa·s"},
      {"measurement": "viscosity", "setting": "313.15 K", "result": "3.939 ± 0.14", "unit": "mPa·s"},
      {"measurement": "viscosity", "setting": "323.15 K", "result": "3.097 ± 0.11", "unit": "mPa·s"},
      {"measurement": "viscosity", "setting": "333.15 K", "result": "2.472 ± 0.085", "unit": "mPa·s"},
      {"measurement": "viscosity", "setting": "343.15 K", "result": "2.054 ± 0.071", "unit": "mPa·s"}
    ]},
    {"compound": "CCCCCCCCCCCCCCCC(=O)OC", "note": "[methyl hexadecanoate]", "values": [
      {"measurement": "viscosity", "setting": "313.15 K", "result": "3.764 ± 0.13", "unit": "mPa·s"},
      {"measurement": "viscosity", "setting": "323.15 K", "result": "2.931 ± 0.1", "unit": "mPa·s"},
      {"measurement": "viscosity", "setting": "333.15 K", "result": "2.336 ± 0.08", "unit": "mPa·s"},
      {"measurement": "viscosity", "setting": "343.15 K", "result": "1.946 ± 0.067", "unit": "mPa·s"}
    ]},
    {"compound": "CCCCCCCCCCCCCC(=O)OC", "note": "[methyl tetradecanoate]", "values": [
      {"measurement": "viscosity", "setting": "293.15 K", "result": "4.442 ± 0.15", "unit": "mPa·s"},
      {"measurement": "viscosity", "setting": "303.15 K", "result": "3.496 ± 0.12", "unit": "mPa·s"},
      {"measurement": "viscosity", "setting": "313.15 K", "result": "2.841 ± 0.098", "unit": "mPa·s"},
      {"measurement": "viscosity", "setting": "323.15 K", "result": "2.252 ± 0.078", "unit": "mPa·s"},
      {"measurement": "viscosity", "setting": "333.15 K", "result": "1.819 ± 0.063", "unit": "mPa·s"},
      {"measurement": "viscosity", "setting": "343.15 K", "result": "1.521 ± 0.052", "unit": "mPa·s"}
    ]},
    {"compound": "CC/C=C\\C/C=C\\C/C=C\\CCCCCCCC(=O)O", "note": "[all-cis-9,12,15-octadecatrienoic acid]", "values": [
      {"measurement": "kinematic viscosity", "setting": "293.15 K", "result": "1.55e-05 ± 7.9e-07", "unit": "m2/s"},
      {"measurement": "kinematic viscosity", "setting": "303.15 K", "result": "1.24e-05 ± 6.3e-07", "unit": "m2/s"},
      {"measurement": "kinematic viscosity", "setting": "313.15 K", "result": "8.91e-06 ± 4.5e-07", "unit": "m2/s"},
      {"measurement": "kinematic viscosity", "setting": "323.15 K", "result": "7.26e-06 ± 3.7e-07", "unit": "m2/s"},
      {"measurement": "kinematic viscosity", "setting": "333.15 K", "result": "5.96e-06 ± 3e-07", "unit": "m2/s"},
      {"measurement": "kinematic viscosity", "setting": "343.15 K", "result": "5.13e-06 ± 2.6e-07", "unit": "m2/s"}
    ]},
    {"compound": "CC/C=C\\C/C=C\\C/C=C\\CCCCCCCC(=O)OC", "note": "[methyl (Z,Z,Z)-9,12,15-octadecatrienoate]", "values": [
      {"measurement": "viscosity", "setting": "293.15 K", "result": "4.022 ± 0.14", "unit": "mPa·s"},
      {"measurement": "viscosity", "setting": "303.15 K", "result": "3.301 ± 0.11", "unit": "mPa·s"},
      {"measurement": "viscosity", "setting": "313.15 K", "result": "2.79 ± 0.096", "unit": "mPa·s"},
      {"measurement": "viscosity", "setting": "323.15 K", "result": "2.299 ± 0.079", "unit": "mPa·s"},
      {"measurement": "viscosity", "setting": "333.15 K", "result": "1.862 ± 0.064", "unit": "mPa·s"},
      {"measurement": "viscosity", "setting": "343.15 K", "result": "1.596 ± 0.055", "unit": "mPa·s"}
    ]},
    {"compound": "CCCCCCCCCCCC(=O)OC", "note": "[methyl dodecanoate]", "values": [
      {"measurement": "viscosity", "setting": "293.15 K", "result": "3.096 ± 0.11", "unit": "mPa·s"},
      {"measurement": "viscosity", "setting": "303.15 K", "result": "2.475 ± 0.085", "unit": "mPa·s"},
      {"measurement": "viscosity", "setting": "313.15 K", "result": "2.044 ± 0.07", "unit": "mPa·s"},
      {"measurement": "viscosity", "setting": "323.15 K", "result": "1.643 ± 0.056", "unit": "mPa·s"},
      {"measurement": "viscosity", "setting": "333.15 K", "result": "1.383 ± 0.047", "unit": "mPa·s"},
      {"measurement": "viscosity", "setting": "343.15 K", "result": "1.173 ± 0.04", "unit": "mPa·s"}
    ]},
    {"compound": "CCCCC/C=C\\C/C=C\\CCCCCCCC(=O)OC", "note": "[methyl (Z,Z)-9,12-octadecadienate]", "values": [
      {"measurement": "viscosity", "setting": "293.15 K", "result": "4.798 ± 0.17", "unit": "mPa·s"},
      {"measurement": "viscosity", "setting": "303.15 K", "result": "3.822 ± 0.13", "unit": "mPa·s"},
      {"measurement": "viscosity", "setting": "313.15 K", "result": "3.166 ± 0.11", "unit": "mPa·s"},
      {"measurement": "viscosity", "setting": "323.15 K", "result": "2.55 ± 0.088", "unit": "mPa·s"},
      {"measurement": "viscosity", "setting": "333.15 K", "result": "2.078 ± 0.071", "unit": "mPa·s"},
      {"measurement": "viscosity", "setting": "343.15 K", "result": "1.755 ± 0.06", "unit": "mPa·s"}
    ]},
    {"compound": "CC/C=C\\C/C=C\\C/C=C\\CCCCCCCC(=O)OCC(COC(=O)CCCCCCC/C=C\\C/C=C\\C/C=C\\CC)OC(=O)CCCCCCC/C=C\\C/C=C\\C/C=C\\CC", "note": "[trilinolenin]", "values": [
      {"measurement": "kinematic viscosity", "setting": "293.15 K", "result": "2.37e-05 ± 8.1e-07", "unit": "m2/s"},
      {"measurement": "kinematic viscosity", "setting": "303.15 K", "result": "1.76e-05 ± 6.1e-07", "unit": "m2/s"},
      {"measurement": "kinematic viscosity", "setting": "313.15 K", "result": "1.36e-05 ± 4.6e-07", "unit": "m2/s"},
      {"measurement": "kinematic viscosity", "setting": "323.15 K", "result": "1.07e-05 ± 3.7e-07", "unit": "m2/s"},
      {"measurement": "kinematic viscosity", "setting": "333.15 K", "result": "8.68e-06 ± 3e-07", "unit": "m2/s"},
      {"measurement": "kinematic viscosity", "setting": "343.15 K", "result": "7.18e-06 ± 2.5e-07", "unit": "m2/s"}
    ]}
  ]
}
